Laboratory results from ChEMBL document CHEMBL5303573, “Mapping human microbiome drug metabolism by gut bacteria and their genes” (Nature, 2019).

conditions: bacteroides stercoris, 12 h, 2 µM
Description: The drug is tested on Bacteroides stercoris strain: ATCC43183 for biotransformation. The drug concentrations were measured before and after a 12-h incubation by liquid-chromatography-coupled mass spectrometry (LC–MS)

Row | SMILES | Bacterial Biotransformation
1 | COC1=C(OC)C(=O)C(CCCCCCCCCCO)=C(C)C1=O [IDEBENONE] | Compound NOT metabolized
2 | CN1CCN(C2=Nc3ccccc3Oc3ccc(Cl)cc32)CC1.O=C(O)CCC(=O)O [LOXAPINE SUCCINATE] | Compound NOT metabolized

experiment: The drug is tested on Alistipes indistinctus strain: DSM22520 for biotransformation. The drug concentrations were measured before and after a 12-h incubation by liquid-chromatography-coupled mass spectrometry (LC–MS); conditions: 2 µM

Row | SMILES | Bacterial Biotransformation
3 | C#C[C@]1(OC(C)=O)CC[C@H]2[C@@H]3CCC4=C/C(=N/O)CC[C@@H]4[C@H]3CC[C@@]21CC [NORGESTIMATE] | Compound NOT metabolized
4 | COC1=C(OC)C(=O)C(CCCCCCCCCCO)=C(C)C1=O [IDEBENONE] | Compound metabolized
5 | CN1CCN(C2=Nc3ccccc3Oc3ccc(Cl)cc32)CC1.O=C(O)CCC(=O)O [LOXAPINE SUCCINATE] | Compound NOT metabolized

conditions: enterocloster bolteae, 12 h, 2 µM
Description: The drug is tested on Clostridium bolteae strain: ATCCBAA-613 for biotransformation. The drug concentrations were measured before and after a 12-h incubation by liquid-chromatography-coupled mass spectrometry (LC–MS)

Row | SMILES | Bacterial Biotransformation
6 | C#C[C@]1(OC(C)=O)CC[C@H]2[C@@H]3CCC4=C/C(=N/O)CC[C@@H]4[C@H]3CC[C@@]21CC [NORGESTIMATE] | Compound NOT metabolized
7 | COC1=C(OC)C(=O)C(CCCCCCCCCCO)=C(C)C1=O [IDEBENONE] | Compound metabolized
8 | CN1CCN(C2=Nc3ccccc3Oc3ccc(Cl)cc32)CC1.O=C(O)CCC(=O)O [LOXAPINE SUCCINATE] | Compound NOT metabolized

experiment: The drug is tested on Bacteroides fragilis strain: HMW610 for biotransformation. The drug concentrations were measured before and after a 12-h incubation by liquid-chromatography-coupled mass spectrometry (LC–MS); conditions: 2 µM

Row | SMILES | Bacterial Biotransformation
9 | C#C[C@]1(OC(C)=O)CC[C@H]2[C@@H]3CCC4=C/C(=N/O)CC[C@@H]4[C@H]3CC[C@@]21CC [NORGESTIMATE] | Compound NOT metabolized
10 | COC1=C(OC)C(=O)C(CCCCCCCCCCO)=C(C)C1=O [IDEBENONE] | Compound metabolized
11 | CN1CCN(C2=Nc3ccccc3Oc3ccc(Cl)cc32)CC1.O=C(O)CCC(=O)O [LOXAPINE SUCCINATE] | Compound NOT metabolized

experiment: The drug is tested on Bacteroides fragilis strain: ATCC43859 for biotransformation. The drug concentrations were measured before and after a 12-h incubation by liquid-chromatography-coupled mass spectrometry (LC–MS); conditions: 2 µM

Row | SMILES | Bacterial Biotransformation
12 | C#C[C@]1(OC(C)=O)CC[C@H]2[C@@H]3CCC4=C/C(=N/O)CC[C@@H]4[C@H]3CC[C@@]21CC [NORGESTIMATE] | Compound NOT metabolized
13 | COC1=C(OC)C(=O)C(CCCCCCCCCCO)=C(C)C1=O [IDEBENONE] | Compound metabolized
14 | CN1CCN(C2=Nc3ccccc3Oc3ccc(Cl)cc32)CC1.O=C(O)CCC(=O)O [LOXAPINE SUCCINATE] | Compound NOT metabolized

experiment: The drug is tested on Subdoligranulum variabile strain: DSM15176 for biotransformation. The drug concentrations were measured before and after a 12-h incubation by liquid-chromatography-coupled mass spectrometry (LC–MS); conditions: 2 µM

Row | SMILES | Bacterial Biotransformation
15 | C#C[C@]1(OC(C)=O)CC[C@H]2[C@@H]3CCC4=C/C(=N/O)CC[C@@H]4[C@H]3CC[C@@]21CC [NORGESTIMATE] | Compound NOT metabolized
16 | COC1=C(OC)C(=O)C(CCCCCCCCCCO)=C(C)C1=O [IDEBENONE] | Compound metabolized
17 | CN1CCN(C2=Nc3ccccc3Oc3ccc(Cl)cc32)CC1.O=C(O)CCC(=O)O [LOXAPINE SUCCINATE] | Compound NOT metabolized

experiment: The drug is tested on Dorea formicigenerans strain: ATCC27755 for biotransformation. The drug concentrations were measured before and after a 12-h incubation by liquid-chromatography-coupled mass spectrometry (LC–MS); conditions: 2 µM

Row | SMILES | Bacterial Biotransformation
18 | C#C[C@]1(OC(C)=O)CC[C@H]2[C@@H]3CCC4=C/C(=N/O)CC[C@@H]4[C@H]3CC[C@@]21CC [NORGESTIMATE] | Compound NOT metabolized
19 | COC1=C(OC)C(=O)C(CCCCCCCCCCO)=C(C)C1=O [IDEBENONE] | Compound NOT metabolized
20 | CN1CCN(C2=Nc3ccccc3Oc3ccc(Cl)cc32)CC1.O=C(O)CCC(=O)O [LOXAPINE SUCCINATE] | Compound NOT metabolized

experiment: The drug is tested on Bacteroides coprophilus strain: DSM18228 for biotransformation. The drug concentrations were measured before and after a 12-h incubation by liquid-chromatography-coupled mass spectrometry (LC–MS); conditions: 2 µM

Row | SMILES | Bacterial Biotransformation
21 | C#C[C@]1(OC(C)=O)CC[C@H]2[C@@H]3CCC4=C/C(=N/O)CC[C@@H]4[C@H]3CC[C@@]21CC [NORGESTIMATE] | Compound NOT metabolized
22 | COC1=C(OC)C(=O)C(CCCCCCCCCCO)=C(C)C1=O [IDEBENONE] | Compound NOT metabolized
23 | CN1CCN(C2=Nc3ccccc3Oc3ccc(Cl)cc32)CC1.O=C(O)CCC(=O)O [LOXAPINE SUCCINATE] | Compound NOT metabolized

experiment: The drug is tested on Collinsella intestinalis strain: DSM13280 for biotransformation. The drug concentrations were measured before and after a 12-h incubation by liquid-chromatography-coupled mass spectrometry (LC–MS); conditions: 2 µM

Row | SMILES | Bacterial Biotransformation
24 | C#C[C@]1(OC(C)=O)CC[C@H]2[C@@H]3CCC4=C/C(=N/O)CC[C@@H]4[C@H]3CC[C@@]21CC [NORGESTIMATE] | Compound NOT metabolized
25 | CN1CCN(C2=Nc3ccccc3Oc3ccc(Cl)cc32)CC1.O=C(O)CCC(=O)O [LOXAPINE SUCCINATE] | Compound NOT metabolized

experiment: The drug is tested on Ruminococcus torques strain: ATCC27756 for biotransformation. The drug concentrations were measured before and after a 12-h incubation by liquid-chromatography-coupled mass spectrometry (LC–MS); format: ADME; set-up: dose 2 uM, timepoint 0 vs 12 hours; conditions: 2 µM

Row | SMILES | Bacterial Biotransformation
26 | C#C[C@]1(OC(C)=O)CC[C@H]2[C@@H]3CCC4=C/C(=N/O)CC[C@@H]4[C@H]3CC[C@@]21CC [NORGESTIMATE] | Compound NOT metabolized
27 | COC1=C(OC)C(=O)C(CCCCCCCCCCO)=C(C)C1=O [IDEBENONE] | Compound NOT metabolized
28 | CN1CCN(C2=Nc3ccccc3Oc3ccc(Cl)cc32)CC1.O=C(O)CCC(=O)O [LOXAPINE SUCCINATE] | Compound NOT metabolized

experiment: The drug is tested on Eubacterium rectale strain: ATCC33656 for biotransformation. The drug concentrations were measured before and after a 12-h incubation by liquid-chromatography-coupled mass spectrometry (LC–MS); conditions: agathobacter rectalis, 2 µM

Row | SMILES | Bacterial Biotransformation
29 | C#C[C@]1(OC(C)=O)CC[C@H]2[C@@H]3CCC4=C/C(=N/O)CC[C@@H]4[C@H]3CC[C@@]21CC [NORGESTIMATE] | Compound metabolized
30 | COC1=C(OC)C(=O)C(CCCCCCCCCCO)=C(C)C1=O [IDEBENONE] | Compound NOT metabolized
31 | CN1CCN(C2=Nc3ccccc3Oc3ccc(Cl)cc32)CC1.O=C(O)CCC(=O)O [LOXAPINE SUCCINATE] | Compound NOT metabolized

experiment: The drug is tested on Parabacteroides merdae strain: ATCC43184 for biotransformation. The drug concentrations were measured before and after a 12-h incubation by liquid-chromatography-coupled mass spectrometry (LC–MS); conditions: 2 µM

Row | SMILES | Bacterial Biotransformation
32 | C#C[C@]1(OC(C)=O)CC[C@H]2[C@@H]3CCC4=C/C(=N/O)CC[C@@H]4[C@H]3CC[C@@]21CC [NORGESTIMATE] | Compound NOT metabolized
33 | COC1=C(OC)C(=O)C(CCCCCCCCCCO)=C(C)C1=O [IDEBENONE] | Compound NOT metabolized
34 | CN1CCN(C2=Nc3ccccc3Oc3ccc(Cl)cc32)CC1.O=C(O)CCC(=O)O [LOXAPINE SUCCINATE] | Compound NOT metabolized

experiment: The drug is tested on Bacteroides ovatus strain: ATCC8483 for biotransformation. The drug concentrations were measured before and after a 12-h incubation by liquid-chromatography-coupled mass spectrometry (LC–MS); conditions: 2 µM

Row | SMILES | Bacterial Biotransformation
35 | C#C[C@]1(OC(C)=O)CC[C@H]2[C@@H]3CCC4=C/C(=N/O)CC[C@@H]4[C@H]3CC[C@@]21CC [NORGESTIMATE] | Compound NOT metabolized
36 | COC1=C(OC)C(=O)C(CCCCCCCCCCO)=C(C)C1=O [IDEBENONE] | Compound NOT metabolized
37 | CN1CCN(C2=Nc3ccccc3Oc3ccc(Cl)cc32)CC1.O=C(O)CCC(=O)O [LOXAPINE SUCCINATE] | Compound NOT metabolized

experiment: The drug is tested on Clostridium symbiosum strain: ATCC14940 for biotransformation. The drug concentrations were measured before and after a 12-h incubation by liquid-chromatography-coupled mass spectrometry (LC–MS); conditions: 2 µM

Row | SMILES | Bacterial Biotransformation
38 | COC1=C(OC)C(=O)C(CCCCCCCCCCO)=C(C)C1=O [IDEBENONE] | Compound NOT metabolized
39 | CN1CCN(C2=Nc3ccccc3Oc3ccc(Cl)cc32)CC1.O=C(O)CCC(=O)O [LOXAPINE SUCCINATE] | Compound NOT metabolized

experiment: The drug is tested on Coprococcus comes strain: ATCC27758 for biotransformation. The drug concentrations were measured before and after a 12-h incubation by liquid-chromatography-coupled mass spectrometry (LC–MS); format: ADME; set-up: dose 2 uM, timepoint 0 vs 12 hours; conditions: 2 µM

Row | SMILES | Bacterial Biotransformation
40 | C#C[C@]1(OC(C)=O)CC[C@H]2[C@@H]3CCC4=C/C(=N/O)CC[C@@H]4[C@H]3CC[C@@]21CC [NORGESTIMATE] | Compound NOT metabolized
41 | COC1=C(OC)C(=O)C(CCCCCCCCCCO)=C(C)C1=O [IDEBENONE] | Compound NOT metabolized
42 | CN1CCN(C2=Nc3ccccc3Oc3ccc(Cl)cc32)CC1.O=C(O)CCC(=O)O [LOXAPINE SUCCINATE] | Compound NOT metabolized

experiment: The drug is tested on Edwardsiella tarda strain: ATCC23685 for biotransformation. The drug concentrations were measured before and after a 12-h incubation by liquid-chromatography-coupled mass spectrometry (LC–MS); conditions: 2 µM

Row | SMILES | Bacterial Biotransformation
43 | C#C[C@]1(OC(C)=O)CC[C@H]2[C@@H]3CCC4=C/C(=N/O)CC[C@@H]4[C@H]3CC[C@@]21CC [NORGESTIMATE] | Compound NOT metabolized
44 | COC1=C(OC)C(=O)C(CCCCCCCCCCO)=C(C)C1=O [IDEBENONE] | Compound NOT metabolized

experiment: The drug is tested on Blautia luti strain: DSM14534 for biotransformation. The drug concentrations were measured before and after a 12-h incubation by liquid-chromatography-coupled mass spectrometry (LC–MS); format: ADME; set-up: dose 2 uM, timepoint 0 vs 12 hours; conditions: 2 µM

Row | SMILES | Bacterial Biotransformation
45 | C#C[C@]1(OC(C)=O)CC[C@H]2[C@@H]3CCC4=C/C(=N/O)CC[C@@H]4[C@H]3CC[C@@]21CC [NORGESTIMATE] | Compound NOT metabolized
46 | COC1=C(OC)C(=O)C(CCCCCCCCCCO)=C(C)C1=O [IDEBENONE] | Compound metabolized
47 | CN1CCN(C2=Nc3ccccc3Oc3ccc(Cl)cc32)CC1.O=C(O)CCC(=O)O [LOXAPINE SUCCINATE] | Compound NOT metabolized

experiment: The drug is tested on Enterobacter cancerogenus strain: ATCC35316 for biotransformation. The drug concentrations were measured before and after a 12-h incubation by liquid-chromatography-coupled mass spectrometry (LC–MS); conditions: 2 µM

Row | SMILES | Bacterial Biotransformation
48 | C#C[C@]1(OC(C)=O)CC[C@H]2[C@@H]3CCC4=C/C(=N/O)CC[C@@H]4[C@H]3CC[C@@]21CC [NORGESTIMATE] | Compound NOT metabolized
49 | COC1=C(OC)C(=O)C(CCCCCCCCCCO)=C(C)C1=O [IDEBENONE] | Compound NOT metabolized
50 | CN1CCN(C2=Nc3ccccc3Oc3ccc(Cl)cc32)CC1.O=C(O)CCC(=O)O [LOXAPINE SUCCINATE] | Compound NOT metabolized

experiment: The drug is tested on Clostridium asparagiforme strain: DSM15981 for biotransformation. The drug concentrations were measured before and after a 12-h incubation by liquid-chromatography-coupled mass spectrometry (LC–MS); format: ADME; set-up: dose 2 uM, timepoint 0 vs 12 hours; conditions: enterocloster asparagiformis, 2 µM

Row | SMILES | Bacterial Biotransformation
51 | C#C[C@]1(OC(C)=O)CC[C@H]2[C@@H]3CCC4=C/C(=N/O)CC[C@@H]4[C@H]3CC[C@@]21CC [NORGESTIMATE] | Compound NOT metabolized
52 | COC1=C(OC)C(=O)C(CCCCCCCCCCO)=C(C)C1=O [IDEBENONE] | Compound NOT metabolized
53 | CN1CCN(C2=Nc3ccccc3Oc3ccc(Cl)cc32)CC1.O=C(O)CCC(=O)O [LOXAPINE SUCCINATE] | Compound NOT metabolized

experiment: The drug is tested on Bacteroides pectinophilus strain: ATCC43243 for biotransformation. The drug concentrations were measured before and after a 12-h incubation by liquid-chromatography-coupled mass spectrometry (LC–MS); conditions: 2 µM

Row | SMILES | Bacterial Biotransformation
54 | C#C[C@]1(OC(C)=O)CC[C@H]2[C@@H]3CCC4=C/C(=N/O)CC[C@@H]4[C@H]3CC[C@@]21CC [NORGESTIMATE] | Compound NOT metabolized
55 | COC1=C(OC)C(=O)C(CCCCCCCCCCO)=C(C)C1=O [IDEBENONE] | Compound NOT metabolized
56 | CN1CCN(C2=Nc3ccccc3Oc3ccc(Cl)cc32)CC1.O=C(O)CCC(=O)O [LOXAPINE SUCCINATE] | Compound NOT metabolized
